Measured values published in patent US12704520B2, “Melanogenesis detection method using FAM86A” (Research & Business Foundation Sungkyunkwan University, priority 2019, dated 2026).

What was measured:
Type in all cases: cell-based, mouse
cAMP = cAMP ELISA after FAM86A knockdown; conditions: B16F10 cells
Protocol: The B16F10 cells cultured in Example 1 were seeded in 6-well plates at a density of 5×10^4 cells per well, grown for 24 hours, and FAM86A shRNA represented by SEQ ID NO: 17 was used for FAM86A gene knockdown. Afterward, the cells were washed twice with PBS. Subsequently, PBS was completely removed, and then 200 μL of RIPA buffer, which is a tissue lysis and staining reagent, was added to each plate, followed by harvesting cells with a scraper. Afterward, a BCA assay was conducted to quantify proteins, and then the expression of cAMP protein was measured using a cAMP ELISA kit (ab65355).

B16F10 cells [1] = test: Melanin secretion assay after FAM86A knockdown and α-MSH treatment; conditions: FAM86A knockdown plus α-MSH 100 nM, 48 hours, absorbance 475 nm
Protocol: The melanin synthesis promoting hormone α-MSH was used to induce melanogenesis in melanocytes.
The B16F10 cells cultured in Example 1 were seeded in a 6-well plate at 5×10^4 cells/well and cultured for 24 hours, FAM86A (family with sequence similarity 86, member A) shRNA represented by SEQ ID NO: 17 was used for knockdown of the FAM86A gene, and then the cells were treated with α-MSH at 100 nM. The resulting cells were cultured in an incubator under conditions of 37° C. and 5% CO2 for 48 hours, and 800 μL of the cell culture fluid was transferred to a fresh tube, and centrifuged at 4° C. and 12,000 rpm for 5 minutes to obtain a supernatant. 100 μL of the resulting supernatant was dispensed into a 96-well plate, and subjected to absorbance measurement at 475 nm. Here, an amount of melanin production was calculated based on 100% of the amount of melanin in cells not treated with α-MSH.

B16F10 cells [2] = test: Melanin content assay after FAM86A knockdown and α-MSH treatment; conditions: FAM86A knockdown plus α-MSH 100 nM, 48 hours, absorbance 405 nm
Protocol: A melanocyte stimulating hormone (α-MSH), which is a melanin synthesis promoting hormone, was used to induce melanogenesis in melanocytes.
The B16F10 cells cultured in Example 1 were seeded in 6-well plates at a density of 5×10^4 cells per well, grown for 24 hours, and FAM86A shRNA represented by SEQ ID NO: 17 in Table 1 was used for knockdown of the FAM86A gene. The cells were treated with α-MSH to be 100 nM. The resulting cells were cultured in an incubator under conditions of 37° C. and 5% CO2 for 48 hours, the medium was removed, and a cell lysis buffer was treated at 200 μL per well to lyse the cells, followed by centrifugation at 4° C. and 12,000 rpm for 5 minutes and removal of a supernatant. The resulting pellet was treated with 100 μL of a 10% sodium dodecyl sulfate-1M NaOH solution and heated for 30 minutes at 60° C. Afterward, the heated solution was maintained at room temperature to cool to 25° C., absorbance at 405 nm was measured, and the results are shown in FIG. 12. Here, an amount of melanin production was calculated based on 100% of the amount of melanin in cells not treated with α-MSH.

B16F10 cells [3] = test: Melanin secretion assay after FAM86A knockdown; conditions: FAM86A knockdown without α-MSH, 48 hours, absorbance 475 nm
Protocol: The B16F10 cells cultured in Example 1 were seeded in a 6-well plate at 5×10^4 cells/well and cultured for 24 hours, and the knockdown of the FAM86A gene was induced using FAM86A shRNA represented by SEQ ID NO: 17. The cells were cultured in an incubator under conditions of 37° C. and 5% CO2 for 48 hours, the medium was removed, and then a cell lysis buffer was added at 200 μL per well to lyse the cells, followed by centrifugation at 4° C. and 12,000 rpm for 5 minutes and removal of a supernatant. 100 μL of the resulting supernatant was dispensed into a 96-well plate, and subjected to absorbance measurement at 475 nm. Here, an amount of melanin secretion was calculated based on 100% of the amount of melanin in cells in which the FAM86A gene was not knocked down.

[4] = test system: MAPK & MC1R signaling pathway proteins; test: Western blotting of MAPK & MC1R signaling pathway proteins after FAM86A knockdown; conditions: B16F10 cells, 48 hours
Protocol: The B16F10 cells cultured in Example 1 were seeded in 6-well plates at a density of 5×10^4 cells per well, grown for 24 hours, and FAM86A shRNA represented by SEQ ID NO: 17 was used to induce the knockdown of FAM86A gene. The cells were cultured in an incubator under conditions of 37° C. and 5% CO2 for 48 hours. Afterward, the cells were washed twice with PBS. After completely removing the PBS, 200 μL of RIPA buffer, which is a cell lysis and staining reagent, was added to the plate, and the cells were collected using a scraper. Afterward, a protein was quantified using a BCA assay, and electrophoresis was performed using 10% SDS-PAGE. The protein in the resulting PAGE gel was transferred onto a PVDF membrane, and the resulting PVDF membrane onto which the protein transfer had been completed was blocked in TBS-T (in 100 mM NaCl, 10 mM Tris, 0.1% (v/v) Tween-20, pH 7.4 (PBST) containing 3% BSA) at room temperature. Then, after washing three times for 10 minutes using TBS-T, a primary antibody in 3% BSA dissolved in TBS-T was treated for 1 hour, and sufficiently washed with TBS-T. In addition, a secondary antibody was treated for 1 hour, and washed three times with PBS-T for 10 minutes each. Subsequently, the amount and location of a specific protein were confirmed using an ECL detection system. The correction of the protein amount was performed by checking the amount of an actin protein by stripping the PVDF membrane, and confirming it to have the same amount as that of the protein of interest. The primary and secondary antibodies were purchased from Cell Signaling and Santa Cruz.

B16F10 cells [5] = test: Melanin content assay after FAM86A knockdown; conditions: FAM86A knockdown without α-MSH, 48 hours, absorbance 405 nm
Protocol: The B16F10 cells cultured in Example 1 were seeded in a 6-well plate at 5×10^4 cells/well and cultured for 24 hours, and the knockdown of the FAM86A gene was induced using FAM86A shRNA represented by SEQ ID NO: 17. The cells were cultured in an incubator under conditions of 37° C. and 5% CO2 for 48 hours, the medium was removed, and then a cell lysis buffer was added at 200 μL per well to lyse the cells, followed by centrifugation at 4° C. and 12,000 rpm for 5 minutes and removal of a supernatant. The resulting pellet was treated with 100 μL of a 10% sodium dodecyl sulfate-1M NaOH solution, and heated for 30 minutes at 60° C. Afterward, the heated solution was maintained at room temperature to cool to 25° C., and absorbance at 405 nm was measured. Here, an amount of melanin production was calculated based on 100% of the amount of melanin in cells in which the FAM86A gene was not knocked down.

Substance: SEQ ID NO: 17: FAM86 shRNA (Mus musculus, NM_027446.2), pLKO.1 vector, target sequence SEQ ID NO: 27; used in the examples (DNA CCGGGTCTATGTAGCCTATACTATCCTCGAGGATAGTATAGGCTACATAGACTTTTTG)
- cAMP expression (cAMP): increased
- secretion amount of melanin (B16F10 cells [1]): increased
- amount of melanin (production) (B16F10 cells [2]): increased
- amount of melanin secretion (B16F10 cells [3]): increased
- expression level of MITF protein [4]: significantly increased
- expression level of p-CREB protein [4]: significantly increased
- expression level of p-PKA protein [4]: significantly increased
- p-ERK [4]: decreased
- p-JNK [4]: increased
- p-p38 [4]: increased
- amount of melanin (production) (B16F10 cells [5]): increased
